Results on 3 compounds are retold here after patent EP0176049A2, “Aminoalkylnaphtalene derivatives having pharmacological activities” (priority 1984, dated 1986).

For data set [1], the target named is enzymes responsible for the enkephalins hydrolysis. The experiment in a line: inhibition of the enzymes responsible for the enkephalins hydrolysis. The data set is classed as biochemical.
Data set [2] deals with mouse. The experiment in a line: acute toxicity in the mouse. The data set is classed as in vivo. The conditions noted are these: i.p. administration.
The test system of data set [3] is mouse. The experiment in a line: hot plate test (analgesic activity). The data set is classed as in vivo.
A short description of data set [4]: acute toxicity in the mouse. The data set is classed as in vivo. The note with it: in vivo, ip, i.p. administration.
The subject of data set [5] is rat. The experiment in a line: paw oedema by carrageenin according to Randall-Selitto (antiinflammatory activity). The data set is classed as in vivo. The conditions noted are these: ip.

In data set [1], “2-(3-dimethylamino-l-t-butyl-l-hydroxypropyl)-6-methoxy- naphtalene [Example 3]” returned an IC50 of 5 mM. The median lethal dose (LD50) in data set [2] is on record as 120,96 ± 5,32. mg/kg i.p.

Regarding `CCC(O)(c1ccc2cc(OC)ccc2c1)C(C)CN(C)C` (stereo not drawn) [Example 1], half-maximal inhibition in data set [1] (IC50) was put at 4 mM. The same compound showed an ED50 in data set [3] (Mus musculus, route and species not restated for this value) of 13.5 mg/kg. Besides, the “kind of activity in the hot plate test (reversibility by naloxone)” value in data set [3] (naloxone antagonism) was “partially reversible by naloxone”. In addition, in data set [4], the LD50 stood at 65.8 mg/kg.

For `CCC(O)(c1ccc2cc(O)ccc2c1)C(C)CN(C)C` (stereo not drawn) [Example 2], the ED50 in data set [5] came to 1.25 mg/kg; in data set [3] (ip, mouse, analgesic activity), 5.6 ± 1.51 mg/kg. Besides, the LD50 in data set [4] was found to be 56.2 mg/kg.
